The OPERA property sets (Mansouri et al. 2018)

Settings: not given

Point of comparison: `ClCCl`, boiling point 40 °C. Against it:
- C#CCCCCCC — higher, 126 °C
- O=[N+]([O-])c1cc(C(F)(F)F)ccc1Cl — higher, 222 °C
- ClC(Cl)=C(Cl)C(Cl)Cl — higher, 185 °C
- O=C(O)C1CCCCCC1 — higher, 259 °C
- N#CCc1ccc2ccccc2c1 — higher, 303 °C
- CC(C)NCCO — higher, 173 °C
- CCCCCCCOCC — higher, 166 °C
- Oc1ccccc1Br — higher, 194 °C
- CCC1CCCO1 (stereo unspecified) — higher, 109 °C
- C1=CC=CCCC=C1 — higher, 146 °C
- CCOCCOCCO — higher, 196 °C
- Nc1cccc(Cl)c1Cl — higher, 252 °C
- CCOC(=O)c1ccc2ccccc2c1 — higher, 308 °C
- CCCc1cccs1 — higher, 158 °C
- NN1CCOCC1 — higher, 166 °C
- FC(F)(F)c1ccc(Br)cc1 — higher, 160 °C
- CCCCCF — higher, 62.8 °C
- CC(C)COC(=O)OCC(C)C — higher, 190 °C
- C=CCC(=C)C — higher, 56 °C
- CCC(O)CN (stereo unspecified) — higher, 169 °C
- ClCc1cccc2ccccc12 — higher, 292 °C
- c1ccc(-c2ccccc2-c2ccccc2-c2ccccc2)cc1 — higher, 420 °C
- Cc1cc(Cl)cc(Cl)c1 — higher, 202 °C
- CC(=O)c1ccc(N)cc1 — higher, 294 °C
- O=COCCOC=O — higher, 174 °C
- CCOc1ccc(C#N)cc1 — higher, 258 °C
- CN1CSCSC1 — higher, 185 °C
- CCOC(=O)c1ccccc1O — higher, 232 °C
- CCOC(=O)C(CC)(CC)C(C)=O — higher, 216 °C
- Cc1cc(C)n(C)n1 — higher, 170 °C
- CCCCCC#CC(=O)OC — higher, 218 °C
- CC(O)COC(C)C (stereo unspecified) — higher, 138 °C
- c1ccc(CN2CCOCC2)cc1 — higher, 260 °C
- CC(N)CN (stereo unspecified) — higher, 120 °C
- CCCCC(=O)OCCC — higher, 168 °C
- FC(F)(F)C#CC(F)(F)F — lower, -24.6 °C
- O=C(O)CCCCC(=O)O — higher, 338 °C
- CC(C)CCC(C)(C)C — higher, 124 °C
- CCOCCOCCOCC — higher, 188 °C
- CCCC(C)(C)C(C)C — higher, 138 °C
- ClCC(Cl)C(Cl)Cl (stereo unspecified) — higher, 180 °C
- CCOCCOC(C)=O — higher, 156 °C
- CCCCSC#N — higher, 186 °C
- CCCC=C(C)C — higher, 95.4 °C
- CN(C=O)c1ccccc1 — higher, 243 °C

Point of comparison: `Clc1cc(Cl)c(-c2ccc(Cl)c(Cl)c2Cl)cc1Cl`, log10 vapour pressure (mmHg) -5.42. Against it:
- C#CCCCCCC — higher, 1.13
- CCCCCCCCCCCCCCCCCCCCBr — lower, -6.08
- CCOC(=O)Nc1cccc(OC(=O)Nc2ccccc2)c1 — lower, -8.52
- CCCN(CCC)c1c([N+](=O)[O-])cc(C(F)(F)F)cc1[N+](=O)[O-] — higher, -4.34
- CCOCCOCCO — higher, -0.9
- CCCCCF — higher, 2.27
- CCOC(=O)c1ccccc1O — higher, -1.07
- [C-]#[N+]c1ccccc1 — higher, 0.381
- CC(N)CN (stereo unspecified) — higher, 1.03
- CC1(C)CCC(Cc2ccc(Cl)cc2)C1(O)Cn1cncn1 (stereo unspecified) — lower, -7.03
- CCOP(=S)(OCC)Oc1nc(Cl)n(C(C)C)n1 — higher, -4.06
- O=C(O)CCCCC(=O)O — lower, -6.5
- CC(C)CCC(C)(C)C — higher, 1.22
- CCOCCOCCOCC — higher, -0.284
- ClCCl — higher, 2.64
- CCCC(C)(C)C(C)C — higher, 0.993
- CCOCCOC(C)=O — higher, 0.369
- CCCC=C(C)C — higher, 1.73

Point of comparison: `O=[N+]([O-])c1c(Cl)ccc2ccccc12`, melting point 99.5 °C. Against it:
- C#CCCCCCC — lower, -79.3 °C
- C[C@]12CC[C@@H]3c4ccc(OC(=O)N(CCCl)CCCl)cc4CC[C@H]3[C@@H]1CC[C@@H]2O — higher, 104 °C
- O=[N+]([O-])c1cc(C(F)(F)F)ccc1Cl — lower, -2.5 °C
- Nc1cccc2cnccc12 — higher, 128 °C
- C/N=C(\NC)NCc1ccccc1 — higher, 196 °C
- CC(C)(Cl)CCC(C)(C)Cl — lower, 67.5 °C
- N#CCc1ccc2ccccc2c1 — lower, 83 °C
- O=C(O)c1cc(F)cc(F)c1 — higher, 122 °C
- COc1cccc(C(N)=O)c1 — higher, 134 °C
- CC(C)NCCO — higher, 128 °C
- CCCCCCCOCC — lower, -68.3 °C
- CN(C)C(=O)OC1N=C(c2ccccc2)c2cc(Cl)ccc2N(C)C1=O (stereo unspecified) — higher, 174 °C
- CC(=O)[C@H]1CC[C@H]2[C@@H]3CCC4=CC(=O)CC[C@]4(C)[C@H]3CC[C@]12C — higher, 121 °C
- Clc1cncc(Cl)n1 — lower, 56.5 °C
- CCOC(=O)C(O)c1ccccc1 (stereo unspecified) — lower, 35 °C
- CCCCC(=O)O[C@]1(C(=O)CO)[C@@H](C)C[C@H]2[C@@H]3CCC4=CC(=O)C=C[C@]4(C)[C@@]3(F)[C@@H](O)C[C@@]21C — higher, 184 °C
- [O-][N+](=Nc1ccccc1)c1ccccc1 — lower, 36 °C
- CN(C)C(=S)SC(=S)N(C)C — higher, 110 °C
- CNC(=S)NCO — lower, 89 °C
- CCCCCCCCCCCCCCCCCCCCBr — lower, 37.5 °C
- Oc1ccccc1Br — lower, 5.6 °C
- CCOC(=O)Nc1cccc(OC(=O)Nc2ccccc2)c1 — higher, 120 °C
- Cc1ccc(OP(=O)(Oc2ccc(C)c(C)c2)Oc2ccc(C)c(C)c2)cc1C — lower, 72 °C
- O=C(O)C(O)c1ccccc1 (racemic) — higher, 124 °C
- O=C(O)CCI — lower, 81.5 °C
- COc1ccc(CCCC(=O)O)cc1 — lower, 57.5 °C
- CC(C)(O)C(C)(C)O — lower, 43 °C
- CCCN(CCC)c1c([N+](=O)[O-])cc(C(F)(F)F)cc1[N+](=O)[O-] — lower, 49 °C
- CCOCCOCCO — lower, -76 °C
- Nc1cccc(Cl)c1Cl — lower, 24 °C
- CCOC(=O)c1ccc2ccccc2c1 — lower, 32 °C
- CC(C)(C)NCC(O)COc1cccc2c1C[C@H](O)[C@H](O)C2 (stereo partly specified) — higher, 130 °C
- BrC1Cc2ccccc2C1Br (stereo unspecified) — lower, 32 °C
- NS(=O)(=O)c1ccc(CCCCCO)cc1 — lower, 86 °C
- O=C(Nc1ccc(Oc2ccc(Cl)cc2)c(Cl)c1)c1cc(I)cc(I)c1O — higher, 169 °C
- S=C=Nc1ccc(Br)cc1 — lower, 60.5 °C
- CC(C)=NNc1ccccc1 — lower, 42 °C
- CCCCCF — lower, -120 °C
- CC1CS(=O)(=O)CCN1N=Cc1ccc([N+](=O)[O-])o1 (stereo unspecified) — higher, 181 °C
- CC(C)(O)CCCC1=CCC(C=O)CC1 (stereo unspecified) — lower, -30 °C
- CC(C)(C(=O)c1cccnc1)c1cccnc1 — lower, 50.5 °C
- CC(C)(C(=O)O)C(C)(C)C(=O)O — higher, 200 °C
- CCC(O)CN (stereo unspecified) — lower, 3 °C
- CC(CNC1CCCCC1)OC(=O)c1ccccc1.Cl (stereo unspecified) — higher, 178 °C
- ClCc1cccc2ccccc12 — lower, 32 °C
- Nc1ccc(-c2ccc(N)cc2Cl)c(Cl)c1 — higher, 165 °C
- O=C1c2ccc(O)cc2C(=O)c2cc(O)ccc21 — higher, 354 °C
- c1ccc(-c2ccccc2-c2ccccc2-c2ccccc2)cc1 — higher, 118 °C
- Cc1cc(Cl)cc(Cl)c1 — lower, 26 °C
- CCOc1ccc(C#N)cc1 — lower, 61.5 °C
- CN1CSCSC1 — lower, 65 °C
- CCOC(=O)c1ccccc1O — lower, 1 °C
- COCCOc1ccccc1S(=O)(=O)N=C(O)N=c1nc(OC)[nH]c(OC)n1 — higher, 130 °C
- Nc1ccc(C2(c3ccc(N)cc3)OC(=O)c3ccccc32)cc1 — higher, 203 °C
- c1ccc(CN2CCOCC2)cc1 — higher, 194 °C
- O=C(O)Cc1ccc(F)cc1 — lower, 86 °C
- CCCCC(=O)OCCC — lower, -70.7 °C
- C[C@H]1O[C@H](O[C@H]2CC[C@H](n3ccc(NC(=O)c4ccc(NC(=O)[C@@](C)(N)CO)cc4)nc3=O)O[C@@H]2C)[C@H](O)[C@@H](O)[C@@H]1N(C)C — higher, 167 °C
- CC1(C)CCC(Cc2ccc(Cl)cc2)C1(O)Cn1cncn1 (stereo unspecified) — higher, 112 °C
- FC(F)(F)C#CC(F)(F)F — lower, -117 °C
- O=C(O)CCCCC(=O)O — higher, 153 °C
- CC(C)CCC(C)(C)C — lower, -106 °C
- N#Cc1cccc(Cl)c1 — lower, 41 °C
- O=S1(=O)CCOCC1 — higher, 132 °C
- CCOCCOCCOCC — lower, -45 °C
- ClCCl — lower, -95.1 °C
- c1ccc2c(c1)cc1ccc3cc4ccccc4c4ccc2c1c34 — higher, 282 °C
- O=C1c2ccccc2C(=O)C1c1ccc2ccccc2n1 — higher, 241 °C
- CCCC(C)(C)C(C)C — lower, -117 °C
- CCOCCOC(C)=O — lower, -61.7 °C
- CCCC=C(C)C — lower, -130 °C
- CC(C)(C)NCC(O)c1ccc(O)c(CO)c1 (stereo unspecified) — higher, 151 °C
- CN(C=O)c1ccccc1 — lower, 14.5 °C
- Cc1cc(O)c(Cl)c(C)c1Cl — lower, 83 °C

With `Cc1ccc(N)c(S(=O)(=O)O)c1` the ready biodegradability was “not readily biodegradable”.
In the case of `Oc1ccccc1Br`, the ready biodegradability is reported as “not readily biodegradable”.
In the case of `CCCN(CCC)c1c([N+](=O)[O-])cc(C(F)(F)F)cc1[N+](=O)[O-]`, the ready biodegradability is reported as “not readily biodegradable”.
In the case of `CC(C)(C)OCCO`, the ready biodegradability is reported as “not readily biodegradable”.
For `CC(C)(O)CCCC1=CCC(C=O)CC1` (stereo unspecified), the ready biodegradability was “readily biodegradable”.
For `CC(=O)c1ccc(N)cc1`, the ready biodegradability was “not readily biodegradable”.
For `CCOC(=O)c1ccccc1O`, the ready biodegradability was “readily biodegradable”.
With `CC(=O)C(N=Nc1ccc(-c2ccc(N=NC(C(C)=O)C(=O)Nc3ccccc3)c(Cl)c2)cc1Cl)C(=O)Nc1ccccc1` (stereo unspecified) the ready biodegradability was “not readily biodegradable”.
With `N=C(N)S(=O)O` the ready biodegradability was “readily biodegradable”.
In the case of `O=C(O)CCCCC(=O)O`, the ready biodegradability is reported as “readily biodegradable”.
With `ClCCl` the ready biodegradability was “not readily biodegradable”.
With `CCOCCOC(C)=O` the ready biodegradability was “readily biodegradable”.

Point of comparison: `ClCCl`, log10 Henry constant (atm·m³/mol) -2.49. Against it:
- Clc1cc(Cl)c(-c2ccc(Cl)c(Cl)c2Cl)cc1Cl — lower, -4.68
- CCCN(CCC)c1c([N+](=O)[O-])cc(C(F)(F)F)cc1[N+](=O)[O-] — lower, -3.99
- CCOCCOC(C)=O — lower, -5.49

Point of comparison: `ClCCl`, log10 Koa 2.27. Against it:
- Clc1cc(Cl)c(-c2ccc(Cl)c(Cl)c2Cl)cc1Cl — higher, 9.8
- Clc1cc(Cl)c2cccc(Cl)c2c1Cl — higher, 8.41

Point of comparison: `CCOC(=O)Nc1cccc(OC(=O)Nc2ccccc2)c1`, log10 Koc (L/kg) 3.18. Against it:
- Clc1cc(Cl)c(-c2ccc(Cl)c(Cl)c2Cl)cc1Cl — higher, 5.93
- [O-][N+](=Nc1ccccc1)c1ccccc1 — higher, 3.5
- CCCN(CCC)c1c([N+](=O)[O-])cc(C(F)(F)F)cc1[N+](=O)[O-] — higher, 4.2
- CCOP(=S)(OCC)Oc1nc(Cl)n(C(C)C)n1 — lower, 2.01
- ClCCl — lower, 1.44
- c1ccc2c(c1)cc1ccc3cc4ccccc4c4ccc2c1c34 — higher, 5.71

Point of comparison: `CC(C)CCC(C)(C)C`, log10 biodegradation half-life (days) 1.26. Against it:
- c1ccc2c(c1)cc1ccc3cc4ccccc4c4ccc2c1c34 — higher, 2.47

Same assay, conditions: fish

Point of comparison: `Oc1ccccc1Br`, log10 BCF 1.52. Against it:
- Cc1ccc(N)c(S(=O)(=O)O)c1 — lower, 0.6
- CCCN(CCC)c1c([N+](=O)[O-])cc(C(F)(F)F)cc1[N+](=O)[O-] — higher, 3.36
- COP(=S)(OC)Oc1ccc(S(C)(=O)=O)c(C)c1 — lower, 0.51
- O=[N+]([O-])c1cccc(S(=O)(=O)[O][Na])c1 — lower, 0.7
- ClCCl — within 0.2 log units, 1.36

Point of comparison: `CC1(C)CCC(Cc2ccc(Cl)cc2)C1(O)Cn1cncn1` (stereo unspecified), log10 biotransformation half-life (days) 0.23. Against it:
- Clc1cc(Cl)c(-c2ccc(Cl)c(Cl)c2Cl)cc1Cl — higher, 2.59
- Oc1ccccc1Br — lower, -0.24
- CCCN(CCC)c1c([N+](=O)[O-])cc(C(F)(F)F)cc1[N+](=O)[O-] — higher, 0.62
- COP(=S)(OC)Oc1ccc(S(C)(=O)=O)c(C)c1 — lower, -0.03
- C=C(C)CCCCCCCCC — within 0.2 log units, 0.17
- ClCCl — lower, -0.51
